The results in this text go back to patent US8785499B2 (priority 2009, dated 2014).

In assay [1] the target is ecNadD (Escherichia coli (strain K12), UniProt P0A752). The experiment in a line: biochemical. Format: biochemical.
Assay [2] deals with baNadD (Bacillus anthracis, UniProt C3L5T6). The experiment in a line: biochemical. Format: biochemical.
Chain of baNadD (C3L5T6 whole entry, looked up): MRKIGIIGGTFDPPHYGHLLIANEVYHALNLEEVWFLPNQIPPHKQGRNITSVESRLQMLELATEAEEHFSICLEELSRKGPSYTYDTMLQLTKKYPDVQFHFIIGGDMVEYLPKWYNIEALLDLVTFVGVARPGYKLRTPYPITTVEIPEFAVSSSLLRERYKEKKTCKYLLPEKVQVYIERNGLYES

On to `O=C(CSS(=O)(=O)O)NCCc1c[nH]c2ccccc12` [compound 072], for which the “[…]. coli” value in assay [1] is given as 12%. Moreover, the “[…]. anthracis” value in assay [2] came out at 0%.
As to `NS(=O)(=O)c1ccc(NC(=O)CSc2ccc3ccccc3n2)cc1` [compound 073], in assay [1], the “[…]. coli” value was determined as 12%. For the same compound, in assay [2], the “[…]. anthracis” value came to 0%.
For `CSc1ccc(/C=N/c2ccc(S(N)(=O)=O)cc2)cc1` [compound 076], in that order: 12% and 0%.
On the same counts, the results for `O=C(CSc1nc2ccccc2o1)Nc1ccc(Cl)cn1` [compound 077] are 12% and 0%.
On the same counts, the results for `N=C(N)N/N=C/c1ccc([N+](=O)[O-])cc1` [compound 078] are 12% and 0%.
With `O=C(NCCc1nc2ccccc2[nH]1)c1cccs1` [compound 079], the “[…]. coli” value in assay [1] amounted to 12%. In assay [2], the “[…]. anthracis” value is listed as 0%.
As to `O=C(COc1ccc(Cl)cc1)N/N=C/c1cccs1` [compound 080], in assay [1], the “[…]. coli” value came to 11%. Besides, the “[…]. anthracis” value in assay [2] is given as 24%.
On to `NS(=O)(=O)c1ccc(NC(=O)CCc2ccccc2)cc1` [compound 081], for which, in assay [1], the “[…]. coli” value was found to be 11%. Further, in assay [2], the “[…]. anthracis” value is on record as 0%.
For `O=c1[nH]c2ccc(NC(=S)Nc3ccccc3)cc2[nH]1` [compound 083], in that order: 11% and 0%.
On the same counts, the results for `NS(=O)(=O)c1ccc(NC(=S)Nc2ccc(Cl)cc2F)cc1` [compound 084] are 11% and 0%.
On the same counts, the results for `NS(=O)(=O)c1ccc(NC(=S)NCc2ccccc2)cc1` [compound 085] are 11% and 0%.
`O=C(Nc1ccc(O)cc1)c1ccc(Cl)c(Cl)c1` [compound 086]: in assay [1], the “[…]. coli” value stood at 11%. Moreover, the “[…]. anthracis” value in assay [2] was found to be 0%.
On the same counts, the results for `O=C(O)CCNc1ccc(Br)cc1C(=O)O` [compound 087] are 11% and 0%.
Take `Cc1nnc(SCC(=O)Nc2ccc(Cl)cn2)s1` [compound 088]: the “[…]. coli” value in assay [1] was 11%. Moreover, the “[…]. anthracis” value in assay [2] is on record as 0%.
Consider `O=C(O)CC(NC(=O)c1ccccc1NC(=O)c1ccco1)C(=O)O` (stereo not drawn) [compound 089], for which, in assay [1], the “[…]. coli” value was found to be 10%. The “[…]. anthracis” value in assay [2] is 37%.
For `COc1cc(OC)cc(-c2cn[nH]c2N)c1` [compound 090], in that order: 10% and 0%.
For `Cn1ccc(NC(=O)Nc2ccc(Cl)cc2Cl)n1` [compound 091], in that order: 10% and 0%.
For the compound `Cc1ccc(S(=O)(=O)/N=C/c2cccnc2)cc1` [compound 092], the “[…]. coli” value in assay [1] was 10%. Further, in assay [2], the “[…]. anthracis” value was found to be 0%.
Consider `CCS(=O)(=O)CCSc1nc2ccccc2o1` [compound 094], for which the “[…]. coli” value in assay [1] came out at 10%. Moreover, in assay [2], the “[…]. anthracis” value is reported as 0%.
Regarding `NS(=O)(=O)c1ccc(CCNC(=S)Nc2ccc(S(N)(=O)=O)cc2)cc1` [compound 095], in assay [1], the “[…]. coli” value stood at 10%. The “[…]. anthracis” value in assay [2] is recorded as 0%.
For `NC(=O)c1ccc(NC(=O)COc2ccc3ccccc3c2)cc1` [compound 097], in that order: 10% and 63%.
In the case of `COc1cccc(C=C2C(=O)NC(=O)NC2=O)c1OCC(=O)O` [compound 098], in assay [1], the “[…]. coli” value is recorded as 10%. For the same compound, the “[…]. anthracis” value in assay [2] came to 13%.
On the same counts, the results for `Cc1cc(OCC(=O)Nc2ccc(S(N)(=O)=O)cc2)ccc1Cl` [compound 099] are 10% and 2%.
On the same counts, the results for `O=C(CSc1nnc(-c2ccncc2)[nH]1)Nc1ccccc1Cl` [compound 100] are 9% and 0%.
In the case of `NS(=O)(=O)c1ccc(CCNC(=O)COc2ccc(Cl)cc2Cl)cc1` [compound 101], the “[…]. coli” value in assay [1] is recorded as 9%. In addition, the “[…]. anthracis” value in assay [2] is given as 0%.
Turning to `Cc1nc(N)nc(O)c1Oc1ccccc1` [compound 102], the “[…]. coli” value in assay [1] is recorded as 9%. In assay [2], the “[…]. anthracis” value stood at 6%.
For `COc1ccc(NS(=O)(=O)c2ccc(SC)cc2)cc1` [compound 103], in that order: 9% and 0%.
`Nc1nnc(SCc2ccccc2Cl)s1` [compound 104]: the “[…]. coli” value in assay [1] was 9%. Besides, in assay [2], the “[…]. anthracis” value came out at 29%.
On the same counts, the results for `Cc1ccc(NC(=S)NC(=O)c2ccc(F)cc2)nc1` [compound 105] are 9% and 51%.
For `CCOC(=O)c1cc(-c2ccc(C)cc2)[nH]n1` [compound 106], in that order: 9% and 0%.
With `O=C(O)c1cc(Cl)c(Cl)cc1C(=O)Nc1ccc(O)cc1` [compound 107], the “[…]. coli” value in assay [1] turned out to be 9%. In addition, in assay [2], the “[…]. anthracis” value amounted to 0%.
For `Cn1nnnc1SCC(=O)Nc1ccc(Br)cc1Cl` [compound 108], in that order: 9% and 0%.
For `CCCn1cc(C(CC(=O)O)C(=O)O)c2ccccc21` (stereo not drawn) [compound 110], in that order: 9% and 0%.
On the same counts, the results for `O=c1/c(=C/c2ccc(O)cc2)sc2nc3cc(Br)cnc3n12` [compound 111] are 9% and 6%.
In the case of `O=C(Nc1ncnc2[nH]cnc12)c1ccccc1` [compound 112], in assay [1], the “[…]. coli” value is 8%. For the same compound, the “[…]. anthracis” value in assay [2] worked out at 0%.
On to `Br.Cn1ccnc1SCC(=O)c1ccccc1` [compound 113], for which the “[…]. coli” value in assay [1] was found to be 8%. Moreover, the “[…]. anthracis” value in assay [2] is 12%.
On the same counts, the results for `CCCCN(C(C)=O)c1ccc(C(=O)O)cc1` [compound 114] are 8% and 0%.
On the same counts, the results for `O=C(O)CN(c1ccccc1)S(=O)(=O)c1ccccc1[N+](=O)[O-]` [compound 115] are 8% and 0%.
On the same counts, the results for `O=C(O)c1nonc1NCn1cnnn1` [compound 116] are 8% and 5%.
For `O=C(O)Cn1cc(Cl)c([N+](=O)[O-])n1` [compound 117], in assay [1], the “[…]. coli” value was 8%. Moreover, the “[…]. anthracis” value in assay [2] is 14%.
Take `NS(=O)(=O)c1ccc(/N=C/c2ccc(Cl)cc2Cl)cc1` [compound 118]: the “[…]. coli” value in assay [1] came to 8%. In assay [2], the “[…]. anthracis” value came out at 0%.
Consider `O=C(O)c1cc(/N=C/c2ccc3c(c2)OCO3)ccc1O` [compound 119], for which, in assay [1], the “[…]. coli” value is 8%. Also, the “[…]. anthracis” value in assay [2] worked out at 0%.
For `Cc1cccc(C(=O)NNC(=O)/C=C\C(=O)O)c1` [compound 120], the “[…]. coli” value in assay [1] stood at 8%. For the same compound, in assay [2], the “[…]. anthracis” value stood at 0%.
For `CCSc1ccccc1C(=O)Nc1ccc(S(N)(=O)=O)cc1` [compound 121], in that order: 8% and 0%.
For `Cc1ccc(C(=O)Nc2nc3ccc(Br)cc3s2)o1` [compound 123], in that order: 7% and 0%.
For `O=C(NCc1ccccc1)Nc1ccc2nsnc2c1` [compound 124], in that order: 7% and 0%.
`CC(=O)Nc1ccc(OCC(=O)Nc2ccccc2)cc1` [compound 125]: in assay [1], the “[…]. coli” value came out at 7%. Further, the “[…]. anthracis” value in assay [2] came to 0%.
For the compound `CCOc1ccc(S(=O)(=O)Nc2cccnc2)cc1` [compound 126], the “[…]. coli” value in assay [1] was found to be 7%. Moreover, the “[…]. anthracis” value in assay [2] is 22%.
For `CC(=O)c1ccc(NC(=O)CC(NCc2cccnc2)C(=O)O)cc1` (stereo not drawn) [compound 127], in that order: 7% and 59%.
On the same counts, the results for `CC(=O)Nc1ccc(NC(=O)CSc2nccc(O)n2)cc1` [compound 128] are 7% and 0%.
Regarding `O=C(CSc1nnc[nH]1)Nc1ccc(I)cc1` [compound 129], the “[…]. coli” value in assay [1] turned out to be 7%. Also, the “[…]. anthracis” value in assay [2] came to 0%.
As to `O=C(O)c1ccccc1S(=O)(=O)c1ccccc1C(=O)O` [compound 130], in assay [1], the “[…]. coli” value came to 7%. Also, in assay [2], the “[…]. anthracis” value is 28%.
For `O=C(O)/C=C\C(=O)Nc1ccc(Br)c(Cl)c1` [compound 131], in that order: 7% and 0%.
For `O=C(O)c1ccccc1NC1=NS(=O)(=O)c2ccccc21` [compound 132], in that order: 6% and 25%.
On the same counts, the results for `O=C(O)c1cc(C(=O)O)cc(N2C(=O)c3ccc(C(=O)O)cc3C2=O)c1` [compound 134] are 6% and 0%.
For `O=c1[nH]c2ccc(/N=C/c3cc(Cl)ccc3O)cc2[nH]1` [compound 135], the “[…]. coli” value in assay [1] is on record as 6%. Moreover, the “[…]. anthracis” value in assay [2] is listed as 10%.
As for `NC(=S)NNC(=O)c1ccccc1C(=O)O` [compound 136], the “[…]. coli” value in assay [1] worked out at 6%. Besides, the “[…]. anthracis” value in assay [2] is 64%.
Take `O=C(Nc1ncccc1Cl)c1ccc(Br)cc1` [compound 137]: in assay [1], the “[…]. coli” value is reported as 6%. For the same compound, the “[…]. anthracis” value in assay [2] was 7%.
Regarding `COc1ccc(-c2csc(N)n2)cc1[N+](=O)[O-]` [compound 138], the “[…]. coli” value in assay [1] was found to be 6%. Moreover, in assay [2], the “[…]. anthracis” value was found to be 54%.
Consider `COc1ccc(S(=O)(=O)Nc2ccc(C(N)=O)cc2)cc1Cl` [compound 139], for which the “[…]. coli” value in assay [1] is recorded as 6%. Also, the “[…]. anthracis” value in assay [2] stood at 0%.
With `NS(=O)(=O)c1ccc2nc(NC(=O)CCc3ccccc3)sc2c1` [compound 140], the “[…]. coli” value in assay [1] is reported as 6%. Further, in assay [2], the “[…]. anthracis” value worked out at 0%.
With `O=C(O)c1ccc(-n2cccn2)cc1` [compound 141], the “[…]. coli” value in assay [1] is on record as 6%. Further, the “[…]. anthracis” value in assay [2] was 17%.
For the compound `O=S(=O)(NCCCc1ccccc1)c1cccc2nsnc12` [compound 142], the “[…]. coli” value in assay [1] is 6%. For the same compound, in assay [2], the “[…]. anthracis” value amounted to 0%.
